{
  "source": "paper PMC8752738",
  "about": "“A propolis-derived small molecule ameliorates metabolic syndrome in obese mice by targeting the CREB/CRTC2 transcriptional complex” (Nature Communications, 2022)",
  "key": {"[1]": {"biological_target": "T1, MYC-CREB-ZIP / FLAG-CRTC2 interaction (Homo sapiens, UniProt P16220)", "T1 construct": "expressed in transfected cells; host or cells: HEK293", "T1 sequence (P16220 269-327 limits assumed)": "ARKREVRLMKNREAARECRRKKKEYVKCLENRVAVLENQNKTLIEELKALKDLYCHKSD", "experiment": "Immunoprecipitation of FLAG-CRTC2-WT with MYC-CREB-ZIP fragment", "assay_type": "biochemical", "conditions": "for Relative FLAG/MYC in MYC-IP fraction: Fig 3c replicates, FSK +", "description": "Fig. 3 APC inhibits CRTC2 interacting with CREB-ZIP and reduces acetyltransferase activity of CBP by binding with CREB protein directly. a Isothermal titration calorimetry (ITC) of HIS-CREB protein solution titrated into APC solution. The bottom solid line represents a nonlinear least-squares fitted by a single-site binding model. One of two independent experiments is shown here. b IC50 of APC inhibitory activity detected by CREB–CRTC2 two-hybrid assay in HEK293T cells (n = 3 per treatment, data are represented as mean ± SEM). One of three independent experiments is shown here. c Immunoprecipitation analysis of FLAG-CRTC2-WT recovered by anti-MYC antibody from HEK293 cells co-transfected with plasmids for a Myc-Creb-Zip fragment and the FLAG-Crtc2-Wt, stimulated by FSK (10 nM) for 2-h before harvest. APC (1–10 μM) was included in immunoprecipitation mixtures as indicated. Top represents one of three independent experiments, and the relative gray density of FLAG normalized to MYC in MYC-IP- factions is shown as a bar graph (bottom, n = 3). Data are represented as mean ± SEM; P values were determined by one-way ANOVA followed Dunnett’s multiple comparisons test. d Immunoblotting analysis of the acetyltransferase activity of CBP. The protein levels of H3K27ac and total Histone H3 were determined using specific antibodies from HEK293 cell lysate overexpressing HA-Cbp plasmid. Pretreatment with trichostatin (TSA, 0.5 μM) for 1 h prior to incubation with APC (2, 10 μM) for another 2-h. The top represents one of three independent experiments, and the relative gray density of H3K27ac normalized to total Histone H3 in cell lysate is shown as a bar graph (bottom, n = 3). Data are represented as mean ± SEM; P values were determined by one-way ANOVA followed Dunnett’s multiple comparisons test. ns, P > 0.05; *P < 0.05; **P < 0.01. Sources data for this figure are provided as source data file."}, "[2]": {"experiment": "Metabolic chamber assay", "assay_type": "in vivo, mouse", "conditions": "DIO ip APC; for AUC of RER, %, group mean: mean of APC group, N=4; for AUC of RER, % / RER of DIO: single animals", "protocol": "Metabolic parameters of mice were determined using Columbus Instruments Comprehensive Lab Animal Monitoring System (CLAMS). The area unit under the curve (AUC) of respiratory exchange ratio (RER) and ambulatory activity (X-TOT) were calculated using Graphpad prism 8.0."}},
  "note": "Where “and” joins values, the source holds several entries; their conditions need not be identical. Equal entries are not always repeated.",
  "data": [
    {"smiles": "CC(C)=CCc1cc(C=CC(=O)O)cc(CC=C(C)C)c1O", "note": "[APC, 3,5-diprenyl-4-hydroxycinnamic acid]", "values": [
      {"measurement": "FLAG-CRTC2 binding with MYC-CREB-ZIP domain", "setting": "[1]; APC 1–10 μM", "value": "inhibited"},
      {"measurement": "Relative FLAG/MYC in MYC-IP fraction", "setting": "[1]; APC 1 uM", "value": "3.874 and 3.872 and 3.786"},
      {"measurement": "Relative FLAG/MYC in MYC-IP fraction", "setting": "[1]; APC 5 uM", "value": "3.592 and 3.454 and 3.26"},
      {"measurement": "Relative FLAG/MYC in MYC-IP fraction", "setting": "[1]; APC 10 uM", "value": "2.4146 and 2.393 and 2.225"},
      {"measurement": "AUC of RER, %, group mean", "setting": "[2]; Dark", "value": 65.31, "unit": "%"},
      {"measurement": "AUC of RER, %, group mean", "setting": "[2]; Light", "value": 53.9, "unit": "%"},
      {"measurement": "AUC of RER, %", "setting": "[2]; Light", "value": "54.07% and 52.83% and 53.85% and 54.85%"},
      {"measurement": "RER of DIO, column mean over the RER curve", "setting": "[2]; Mean of APC, 70 intervals, 4 animals", "value": 0.8038},
      {"measurement": "AUC of RER, %, column mean over total, light and dark", "setting": "[2]; Mean of APC, two-way RM ANOVA", "value": 79.47, "unit": "%"},
      {"measurement": "AUC of RER, %, group mean", "setting": "[2]; Total", "value": 119.2, "unit": "%"},
      {"measurement": "AUC of RER, %", "setting": "[2]; Total", "value": "125.06% and 111.68% and 115.24% and 124.86%"},
      {"measurement": "AUC of RER, %", "setting": "[2]; dark", "value": "70.99% and 58.85% and 61.39% and 70.01%"},
      {"measurement": "RER of DIO", "setting": "[2]; interval 1, hour 0", "value": "0.728 and 0.729 (2×) and 0.733"},
      {"measurement": "RER of DIO", "setting": "[2]; interval 2, hour 0.7", "value": "0.795 and 0.774 and 0.72 and 0.734"},
      {"measurement": "RER of DIO", "setting": "[2]; interval 3, hour 1.1", "value": "0.732 and 0.773 and 0.726 and 0.735"},
      {"measurement": "RER of DIO", "setting": "[2]; interval 4, hour 1.5", "value": "0.747 and 0.761 and 0.73 and 0.738"},
      {"measurement": "RER of DIO", "setting": "[2]; interval 5, hour 1.8", "value": "0.78 and 0.778 and 0.722 and 0.754"},
      {"measurement": "RER of DIO", "setting": "[2]; interval 6, hour 2.2", "value": "0.747 and 0.794 and 0.723 and 0.738"},
      {"measurement": "RER of DIO", "setting": "[2]; interval 7, hour 2.6", "value": "0.764 and 0.792 and 0.716 and 0.758"},
      {"measurement": "RER of DIO", "setting": "[2]; interval 8, hour 2.9", "value": "0.779 and 0.804 and 0.705 and 0.738"},
      {"measurement": "RER of DIO", "setting": "[2]; interval 9, hour 3.3", "value": "0.766 and 0.82 and 0.724 and 0.727"},
      {"measurement": "RER of DIO", "setting": "[2]; interval 10, hour 3.7", "value": "0.818 and 0.814 and 0.729 and 0.75"},
      {"measurement": "RER of DIO", "setting": "[2]; interval 11, hour 4.0", "value": "0.78 and 0.803 and 0.732 and 0.733"},
      {"measurement": "RER of DIO", "setting": "[2]; interval 12, hour 4.4", "value": "0.735 and 0.792 and 0.714 and 0.756"},
      {"measurement": "RER of DIO", "setting": "[2]; interval 13, hour 4.8", "value": "0.768 and 0.812 and 0.743 and 0.781"},
      {"measurement": "RER of DIO", "setting": "[2]; interval 14, hour 5.1", "value": "0.759 and 0.799 and 0.716 and 0.757"},
      {"measurement": "RER of DIO", "setting": "[2]; interval 15, hour 5.5", "value": "0.769 and 0.778 and 0.775 and 0.742"},
      {"measurement": "RER of DIO", "setting": "[2]; interval 16, hour 5.9", "value": "0.783 and 0.804 and 0.718 and 0.774"},
      {"measurement": "RER of DIO", "setting": "[2]; interval 17, hour 6.2", "value": "0.75 and 0.77 and 0.709 and 0.78"},
      {"measurement": "RER of DIO", "setting": "[2]; interval 18, hour 6.6", "value": "0.801 and 0.79 and 0.715 and 0.767"},
      {"measurement": "RER of DIO", "setting": "[2]; interval 19, hour 7.0", "value": "0.759 and 0.797 and 0.758 and 0.785"},
      {"measurement": "RER of DIO", "setting": "[2]; interval 20, hour 7.3", "value": "0.769 and 0.747 and 0.713 and 0.758"},
      {"measurement": "RER of DIO", "setting": "[2]; interval 21, hour 7.7", "value": "0.841 and 0.78 and 0.749 and 0.771"},
      {"measurement": "RER of DIO", "setting": "[2]; interval 22, hour 8.1", "value": "0.782 and 0.771 and 0.743 and 0.797"},
      {"measurement": "RER of DIO", "setting": "[2]; interval 23, hour 8.4", "value": "0.804 and 0.814 and 0.781 and 0.79"},
      {"measurement": "RER of DIO", "setting": "[2]; interval 24, hour 8.8", "value": "0.838 and 0.788 and 0.764 and 0.822"},
      {"measurement": "RER of DIO", "setting": "[2]; interval 25, hour 9.2", "value": "0.844 and 0.798 and 0.804 and 0.842"},
      {"measurement": "RER of DIO", "setting": "[2]; interval 26, hour 9.5", "value": "0.809 and 0.808 and 0.794 and 0.831"},
      {"measurement": "RER of DIO", "setting": "[2]; interval 27, hour 9.9", "value": "0.818 and 0.808 and 0.792 and 0.849"},
      {"measurement": "RER of DIO", "setting": "[2]; interval 28, hour 10.3", "value": "0.832 and 0.843 and 0.84 and 0.846"},
      {"measurement": "RER of DIO", "setting": "[2]; interval 29, hour 10.6", "value": "0.841 and 0.824 and 0.818 and 0.858"},
      {"measurement": "RER of DIO", "setting": "[2]; interval 30, hour 11.0", "value": "0.821 and 0.847 and 0.832 (2×)"},
      {"measurement": "RER of DIO", "setting": "[2]; interval 31, hour 11.4", "value": "0.844 and 0.835 and 0.841 and 0.829"},
      {"measurement": "RER of DIO", "setting": "[2]; interval 32, hour 11.7", "value": "0.827 and 0.833 and 0.828 and 0.825"},
      {"measurement": "RER of DIO", "setting": "[2]; interval 33, hour 12.1", "value": "0.841 and 0.831 and 0.816 (2×)"},
      {"measurement": "RER of DIO", "setting": "[2]; interval 34, hour 12.5", "value": "0.864 and 0.863 and 0.842 and 0.837"},
      {"measurement": "RER of DIO", "setting": "[2]; interval 35, hour 12.8", "value": "0.866 and 0.842 and 0.843 and 0.836"},
      {"measurement": "RER of DIO", "setting": "[2]; interval 36, hour 13.2", "value": "0.891 and 0.836 and 0.797 and 0.825"},
      {"measurement": "RER of DIO", "setting": "[2]; interval 37, hour 13.6", "value": "0.88 and 0.869 and 0.798 and 0.846"},
      {"measurement": "RER of DIO", "setting": "[2]; interval 38, hour 13.9", "value": "0.846 and 0.848 and 0.837 and 0.814"},
      {"measurement": "RER of DIO", "setting": "[2]; interval 39, hour 14.3", "value": "0.854 and 0.82 and 0.839 and 0.825"},
      {"measurement": "RER of DIO", "setting": "[2]; interval 40, hour 14.7", "value": "0.86 and 0.846 and 0.828 and 0.83"},
      {"measurement": "RER of DIO", "setting": "[2]; interval 41, hour 15.0", "value": "0.866 and 0.871 and 0.84 and 0.828"},
      {"measurement": "RER of DIO", "setting": "[2]; interval 42, hour 15.4", "value": "0.814 and 0.86 and 0.83 and 0.806"},
      {"measurement": "RER of DIO", "setting": "[2]; interval 43, hour 15.8", "value": "0.858 and 0.883 and 0.843 and 0.83"}
    ]}
  ]
}
